Experimental data published in patent US20250136606A1, “MODULATORS OF TRPML, THEIR COMPOSITIONS AND METHODS OF USE” (Caraway Therapeutics, Inc., priority 2021, published 2025).
Like-named read-outs stand apart in the source and are kept apart here.

Legend:
Assay type in all cases: cell-based
TRPML2 = molecular target: T1, TRPML2 (Homo sapiens, UniProt Q8IZK6); test: Fluorescent TRPML2 assay (performed as for TRPML1, substituting the TRPML2 subtype)
T1 construct: expressed in transfected cells
T1 sequence (Q8IZK6 1-566): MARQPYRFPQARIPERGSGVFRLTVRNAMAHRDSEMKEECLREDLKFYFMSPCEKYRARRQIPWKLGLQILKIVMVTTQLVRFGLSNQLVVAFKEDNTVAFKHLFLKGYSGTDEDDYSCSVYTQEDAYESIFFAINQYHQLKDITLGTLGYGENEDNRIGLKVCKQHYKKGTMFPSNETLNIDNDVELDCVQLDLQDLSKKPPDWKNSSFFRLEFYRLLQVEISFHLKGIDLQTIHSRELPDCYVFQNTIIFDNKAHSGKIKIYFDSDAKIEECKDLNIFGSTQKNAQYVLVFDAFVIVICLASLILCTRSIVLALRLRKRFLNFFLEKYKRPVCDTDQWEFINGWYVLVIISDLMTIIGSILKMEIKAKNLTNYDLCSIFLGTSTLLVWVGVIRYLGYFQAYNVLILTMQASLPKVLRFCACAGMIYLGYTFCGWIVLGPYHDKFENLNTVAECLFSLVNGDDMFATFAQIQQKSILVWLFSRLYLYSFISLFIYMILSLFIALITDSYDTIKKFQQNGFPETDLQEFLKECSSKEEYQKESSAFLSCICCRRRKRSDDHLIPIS
In short: (§1)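 Doxycycline-induced (0.5 ug/mL) HEK-293 Trex cells stably expressing surface-directed mutant channel were loaded with 1 micromolar Fluo4-AM, resuspended in Ringer's with 10 mM calcium and added to compound plates. Fluorescence (ex 480, em 540 nm) gave percent activity versus on-plate controls; EC50 by non-linear regression.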

TRPML3 = molecular target: T2, TRPML3 (Homo sapiens, UniProt Q8TDD5); test: Fluorescent TRPML3 assay (performed as for TRPML1, substituting the TRPML3 subtype)
T2 construct: expressed in transfected cells
T2 sequence (Q8TDD5 1-553): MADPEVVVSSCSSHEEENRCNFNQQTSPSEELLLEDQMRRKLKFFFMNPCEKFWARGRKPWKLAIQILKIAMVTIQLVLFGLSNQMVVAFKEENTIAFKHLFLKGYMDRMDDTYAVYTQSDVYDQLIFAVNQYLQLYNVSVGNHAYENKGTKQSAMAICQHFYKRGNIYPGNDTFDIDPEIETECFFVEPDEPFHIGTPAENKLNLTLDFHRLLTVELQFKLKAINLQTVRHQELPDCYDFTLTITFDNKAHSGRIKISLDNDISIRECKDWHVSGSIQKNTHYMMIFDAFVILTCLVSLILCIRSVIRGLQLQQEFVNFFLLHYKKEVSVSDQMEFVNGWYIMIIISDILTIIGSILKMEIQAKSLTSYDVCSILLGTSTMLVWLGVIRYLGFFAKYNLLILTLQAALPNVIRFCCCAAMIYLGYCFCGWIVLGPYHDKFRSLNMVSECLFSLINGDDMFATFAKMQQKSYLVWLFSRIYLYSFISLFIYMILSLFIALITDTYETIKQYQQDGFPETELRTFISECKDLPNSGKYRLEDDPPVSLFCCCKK
In short: as §1

TRPML1 = TRPML1 (Homo sapiens, UniProt Q9GZU1); test: Fluorescent TRPML1 assay (Fluo4-AM calcium fluorescence in doxycycline-induced HEK-293 Trex cells)
Sequence of TRPML1 (Q9GZU1 whole entry L15A/L16A/L577A/L578A, form open): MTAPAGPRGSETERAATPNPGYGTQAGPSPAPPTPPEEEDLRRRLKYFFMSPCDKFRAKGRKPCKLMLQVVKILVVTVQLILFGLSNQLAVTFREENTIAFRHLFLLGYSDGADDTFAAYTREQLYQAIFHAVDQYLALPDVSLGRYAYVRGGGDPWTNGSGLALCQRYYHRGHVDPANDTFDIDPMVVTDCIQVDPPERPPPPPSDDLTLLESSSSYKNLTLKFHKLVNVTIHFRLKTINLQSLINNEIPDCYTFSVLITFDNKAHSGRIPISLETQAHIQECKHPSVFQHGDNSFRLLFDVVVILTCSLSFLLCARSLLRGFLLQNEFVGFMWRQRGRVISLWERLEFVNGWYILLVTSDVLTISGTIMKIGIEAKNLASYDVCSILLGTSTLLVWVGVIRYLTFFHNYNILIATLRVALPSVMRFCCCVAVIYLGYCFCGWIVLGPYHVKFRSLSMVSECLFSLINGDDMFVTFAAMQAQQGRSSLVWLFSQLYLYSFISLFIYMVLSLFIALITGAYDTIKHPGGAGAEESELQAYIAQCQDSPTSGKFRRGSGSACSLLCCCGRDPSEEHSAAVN
In short: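 First, expression of surface-targeted mutant human TRPML1 is induced in HEK-293 Trex cells with 0.5 ug/mL doxycycline the day before. Next, cells take up 1 micromolar Fluo4-AM in Ringer's with 0.1% Pluronic. Finally, they are added to compounds (6 nanomolar–20 micromolar final) in 10 mM calcium Ringer's and fluorescence is read.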

Row | Compound | EC50 (TRPML2; fluorescent calcium assay) | EC50 (TRPML3; fluorescent calcium assay) | EC50 (TRPML1; fluorescent calcium assay) | EC50 (TRPML2) | EC50 (TRPML3) | EC50 (TRPML1)
1 | Cc1cncc(-n2cc(C3CC3)c3c(N4CCN(C(=O)OC(C)(C)C)C[C@@H]4C)ncnc32)c1 [Compound 150, tert-butyl (S)-4-(5-cyclopropyl-7-(5-methylpyridin-3-yl)-7H-pyrrolo[2,3-d]pyrimidin-4-yl)-3-methylpiperazine-1-carboxylate] | 500 to 2000 nM | 100 to 500 nM | 100 to 500 nM | – | – | –
2 | C[C@@H]1CN(c2ncnc3c2c(C(F)(F)F)cn3-c2cc(C#N)ccn2)[C@H](C)CN1C(=O)OC(C)(C)C [Compound 503, tert-butyl (2R,5R)-4-(7-(4-cyanopyridin-2-yl)-5-(trifluoromethyl)-7H-pyrrolo[2,3-d]pyrimidin-4-yl)-2,5-dimethylpiperazine-1-carboxylate] | – | – | – | > 2000 nM | 100 to 500 nM | < 100 nM
3 | C[C@@H]1CN(c2ncnc3c2c(CC(F)(F)F)cn3-c2cc(C#N)ncn2)[C@@H](C)CN1C(=O)OC(C)(C)C [Compound 618, tert-butyl (2R,5S)-4-(7-(6-cyanopyrimidin-4-yl)-5-(2,2,2-trifluoroethyl)-7H-pyrrolo[2,3-d]pyrimidin-4-yl)-2,5-dimethylpiperazine-1-carboxylate] | – | – | – | 100 to 500 nM | < 100 nM | < 100 nM
4 | C[C@H]1CN(C(=O)OC(C)(C)C(F)(F)F)CCN1c1ncnc2c1c(-c1cnn(C)c1)cn2-c1cc(C#N)ccn1 [Compound 330, 1,1,1-trifluoro-2-methylpropan-2-yl (S)-4-(7-(4-cyanopyridin-2-yl)-5-(1-methyl-1H-pyrazol-4-yl)-7H-pyrrolo[2,3-d]pyrimidin-4-yl)-3-methylpiperazine-1-carboxylate] | 100 to 500 nM | < 100 nM | < 100 nM | – | – | –
5 | C[C@H]1CN(C(=O)OC(C)(C)C)CCN1c1ncnc2c1c(C1=CCOCC1)cn2-c1cc(F)cc(F)c1 [Compound 473, tert-butyl (S)-4-(7-(3,5-difluorophenyl)-5-(3,6-dihydro-2H-pyran-4-yl)-7H-pyrrolo[2,3-d]pyrimidin-4-yl)-3-methylpiperazine-1-carboxylate] | 500 to 2000 nM | 100 to 500 nM | 100 to 500 nM | – | – | –
6 | C[C@H]1CN(C(=O)OC(C)(C)C)CCN1c1ncnc2c1c(C1CC1)cn2C1CCCOC1 (stereo partly drawn) [Compound 345, tert-butyl (3S)-4-(5-cyclopropyl-7-(tetrahydro-2H-pyran-3-yl)-7H-pyrrolo[2,3-d]pyrimidin-4-yl)-3-methylpiperazine-1-carboxylate] | > 2000 nM | 500 to 2000 nM | 500 to 2000 nM | – | – | –
7 | C[C@H]1CN(C(=O)OC(C)(C)C)CCN1c1ncnc2c1c(N1CCC1)cn2-c1cc(F)cc(F)c1 [Compound 498, tert-butyl (S)-4-(5-(azetidin-1-yl)-7-(3,5-difluorophenyl)-7H-pyrrolo[2,3-d]pyrimidin-4-yl)-3-methylpiperazine-1-carboxylate] | – | – | – | < 100 nM | < 100 nM | < 100 nM
8 | Cc1ccnc(-n2cc(C(F)(F)F)c3c(N4C[C@@H](C)N(C(=O)OC(C)(C)C)C[C@@H]4C)ncnc32)c1 [Compound 665, tert-butyl (2R,5S)-2,5-dimethyl-4-(7-(4-methylpyridin-2-yl)-5-(trifluoromethyl)-7H-pyrrolo[2,3-d]pyrimidin-4-yl)piperazine-1-carboxylate] | – | – | – | 500 to 2000 nM | < 100 nM | < 100 nM
9 | C[C@@H]1CN(c2ncnc3c2c(N2CCCC2)cn3-c2cccc(OC(F)(F)F)c2)CCN1C(=O)OC(C)(C)C [Compound 311, tert-butyl (R)-2-methyl-4-(5-(pyrrolidin-1-yl)-7-(3-(trifluoromethoxy)phenyl)-7H-pyrrolo[2,3-d]pyrimidin-4-yl)piperazine-1-carboxylate] | < 100 nM | < 100 nM | < 100 nM | – | – | –
10 | C[C@H]1CN(C(=O)OC(C)(C)C)CCN1c1ncnc2c1c(N(C)C)cn2-c1cccc(Cl)c1 [Compound 415] | 100 to 500 nM | < 100 nM | < 100 nM | – | – | –
11 | Cc1cn(-c2cccc(C(F)(F)F)c2)c2ncnc(N3C[C@@H](C)N(C(=O)OC(C)(C)C)C[C@@H]3C)c12 [Compound 667, tert-butyl (2R,5S)-2,5-dimethyl-4-(5-methyl-7-(3-(trifluoromethyl)phenyl)-7H-pyrrolo[2,3-d]pyrimidin-4-yl)piperazine-1-carboxylate] | – | – | – | 100 to 500 nM | < 100 nM | < 100 nM
12 | C[C@@H]1CN(c2ncnc3c2c(C2CC2)cn3-c2ccc(F)c(F)c2)CCN1C(=O)OC(C)(C)C [Compound 109, tert-butyl (R)-4-(5-cyclopropyl-7-(3,4-difluorophenyl)-7H-pyrrolo[2,3-d]pyrimidin-4-yl)-2-methylpiperazine-1-carboxylate] | < 100 nM | < 100 nM | < 100 nM | – | – | –
13 | C[C@H]1CN(C(=O)OC(C)(C)C)CCN1c1ncnc2c1c(C1CC1)cn2-c1cc(Cl)ccn1 [Compound 457, tert-butyl(S)-4-(7-(4-chloropyridin-2-yl)-5-cyclopropyl-7H-pyrrolo[2,3-d]pyrimidin-4-yl)-3-methylpiperazine-1-carboxylate] | < 100 nM | < 100 nM | < 100 nM | – | – | –
14 | CCCN(C)c1cn(-c2cc(C#N)ccn2)c2ncnc(N3C[C@@H](C)N(C(=O)OC(C)(C)C)C[C@@H]3C)c12 [Compound 499, tert-butyl (2R,5S)-4-(7-(4-cyanopyridin-2-yl)-5-(methyl(propyl)amino)-7H-pyrrolo[2,3-d]pyrimidin-4-yl)-2,5-dimethylpiperazine-1-carboxylate] | – | – | – | 100 to 500 nM | < 100 nM | < 100 nM
15 | C[C@H]1CN(C(=O)OC(C)(C)C)CCN1c1ncnc2c1c(N1CCC(C)(C)C1)cn2-c1cc(C#N)ccn1 [Compound 405, tert-butyl (S)-4-(7-(4-cyanopyridin-2-yl)-5-(3,3-dimethylpyrrolidin-1-yl)-7H-pyrrolo[2,3-d]pyrimidin-4-yl)-3-methylpiperazine-1-carboxylate] | < 100 nM | < 100 nM | < 100 nM | – | – | –
16 | COc1cccc(-n2cc(-c3cccnc3)c3c(N4CCN(C(=O)OC(C)(C)C)C[C@@H]4C)ncnc32)c1 [Compound 272, tert-butyl-(S)-4-(7-(3-methoxyphenyl)-5-(pyridin-3-yl)-7H-pyrrolo[2,3-d]pyrimidin-4-yl)-3-methylpiperazine-1-carboxylate] | 500 to 2000 nM | 100 to 500 nM | 100 to 500 nM | – | – | –
17 | Cc1cn(-c2cc(C(F)(F)F)ccn2)c2ncnc(N3C[C@@H](C)N(C(=O)OC(C)(C)C)C[C@@H]3C)c12 [Compound 537, tert-butyl (2R,5S)-2,5-dimethyl-4-(5-methyl-7-(4-(trifluoromethyl)pyridin-2-yl)-7H-pyrrolo[2,3-d]pyrimidin-4-yl)piperazine-1-carboxylate] | – | – | – | < 100 nM | < 100 nM | < 100 nM
18 | Cc1nc(-n2cc(-c3ccccc3F)c3c(N4CCN(C(=O)OC(C)(C)C)C[C@@H]4C)ncnc32)sc1C#N [Compound 463, tert-butyl (S)-4-(7-(5-cyano-4-methylthiazol-2-yl)-5-(2-fluorophenyl)-7H-pyrrolo[2,3-d]pyrimidin-4-yl)-3-methylpiperazine-1-carboxylate] | < 100 nM | < 100 nM | < 100 nM | – | – | –
19 | Cc1cn(-c2cccc(Cl)c2)c2ncnc(N3CCN(C(=O)OC(C)(C)C)C[C@@H]3C)c12 [Compound 688, tert-butyl (S)-4-(7-(3-chlorophenyl)-5-methyl-7H-pyrrolo[2,3-d]pyrimidin-4-yl)-3-methylpiperazine-1-carboxylate] | – | – | – | < 100 nM | < 100 nM | < 100 nM
20 | C[C@H]1CN(C(=O)OC(C)(C)C)CCN1c1ncnc2c1c(C1CC1)cn2C1CC(C#N)C1 (stereo partly drawn) [Compound 414, tert-butyl (S)-4-(7-(3-cyanocyclobutyl)-5-cyclopropyl-7H-pyrrolo[2,3-d]pyrimidin-4-yl)-3-methylpiperazine-1-carboxylate] | > 2000 nM | 500 to 2000 nM | 500 to 2000 nM | – | – | –
